# Test results taken from patent US20250304700A1, “ANTI-BLOOD DENDRITIC CELL ANTIGEN 2 ANTIBODIES AND USES THEREOF” (Biogen MA Inc., priority 2012, published 2025).
# Key:
# [1] = test system: CHO-BDCA2/FcεRIγ stable transfectant cells; assay: CDC assay with rabbit serum complement; assay type: cell-based; settings: 1 h at 37° C.
# Procedure: CHO− BDCA2/FcεRIγ stable transfectant cells (EAG2456 T1F2 Clone 34.16.7) were seeded at 5×10^4 cells in 96 well Collagen black well plates and incubated at 37° C. for 48 hrs. […] Negative control consisted of wells containing CHO cells, rabbit serum complement, and PI, without antibodies. NK and CHO cells lysed with T-100×were used to determine maximal killing. The plates were read using Cytoflour Fluorescence plate reader (ex530/em645).
# [2] = test system: IFNα production from SLE sera stimulated pDCs; assay: IFNα production after stimulation with SLE sera; assay type: cell-based, human; settings: sera from an SLE patient at final dilution 1/5
# Procedure: The ability of anti-BDCA2 mAb to inhibit IFNα production following stimulation with a physiologically relevant ligand, namely, sera from patients with SLE was also tested. SLE sera are believed to induce type I IFN through complexes of anti-DNA autoantibodies and immunostimulatory hypomethylated DNA that stimulate TLR9. PBMCs were stimulated with sera from an SLE patient (provided by Dr. Gregg Silverman, NYU) and used at a final dilution of 1/5.
# BDCA2 bearing CHO cells = assay: ADCC assay with NK cells; assay type: cell-based; settings: NK:CHO 5:1, 4 hours
# Procedure: The CHO cell line (EAG2456 T1F2 Clone 34.16.7) was used as the target cell. Expression level of BDCA2 on the surface of CHO cells was determined by FACS using an APC-labeled anti-BDCA2 mAb (clone AC144, Miltenyi). NK cells were used as the effector cells and were separated from whole blood by negative selection using the RosetteSep™ Human NK Cell Enrichment Cocktail (Stem Cells Technologies). After a 20 minute incubation with the cocktail at room temperature, NK cells were isolated by discontinuous gradient centrifugation over ficoll. […] The negative control consisted of wells containing CHO and NK cells without antibodies. NK and CHO cells lysed with Tx-100 were used to determine maximal killing. ADCC was evaluated using the Vybrant Cytotoxicity Assay kit (Invitrogen), following the manufacturer's instructions. The assay detects G6PD from damaged cells based on the G6PD-dependent reduction of resazurin which emits fluorescence at 590 nm after excitation at 530 nm. The ADCC assay depicted in FIG. 22 panel A was performed using high BDCA2 expressing CHO cells (panel C) while the ADCC assay in FIG. 22 panel B used CHO cells with lower BDCA2 expression (panel D).
# surface rat Clec4b2 = assay: Direct FACS binding to surface rat Clec4b2; settings: 293E cells co-transfected with rat Clec4b2/FcεRIγ
# Text: To determine whether the lead hu24F4 H4/L1 C95A mAb was capable of binding to surface rat Clec4b2, 293E cells were transiently co-transfected with an EGFP reporter expression vector (pEAG1458) and either human BDCA2/FcεRIγ vectors (pEAG2420 and pEAG2413) or rat Clec4b2/FcεRIγ vectors (pCN834 and pCN844) at 1:1:1 molar ratios. At 3 days post-transfection cells were harvested and stained with the lead hu24F4 H4/L1 C95A mAb in a dilution titration direct FACS binding assay, gating on live EGFP-positive cells.
# [3] = test system: BDCA2 on cynomolgus plasmacytoid dendritic cells; assay: Flow cytometric whole blood assay, BIIB059 binding to cynomolgus pDCs; design: species or system cynomolgus monkey; settings: Alexa647 labeled BIIB059, on ice
# Procedure: Cynomolgus monkey (Toxikon, Inc, Bedford, MA) or human peripheral blood (Biogen Idec) were collected in sodium heparin collection tubes and maintained at room temperature. A FACS staining antibody cocktail for identifying pDCs was added to each whole blood aliquot, incorporating CD20, CD14, CD123 and HLA-DR antibodies. […] Blood was incubated on ice, protected from light, for 30 min. After 30 min., each 500 μL aliquot of whole blood (cyno) or 100 μL (human) was treated with 10 mL (cyno) or 2 mL (human) of 1× Easy Lyse Buffer (Leinco Technologies) that had been incubated at 37° C. for at least one hour. After a 10-15 min. incubation at room temperature, samples were centrifuged at 1400 rpm for 5 min. The supernatant was decanted, leaving only a pellet of white blood cells (WBC). Each WBC pellet was washed with 5 mL of FACS buffer (1% BSA+0.002% NaAzide+1 mM CaCl2)+1 mM MgCl2 in PBS), and centrifuged at 1400 rpm for 5 min. The supernatant was decanted, and each WBC pellet was resuspended in 200 μL of FACS buffer and transferred to a 96-well round bottom plate (Fisher Scientific). The plate was centrifuged at 1400 rpm for 5 min. The supernatant was dumped out of the plate, and each WBC pellet was washed with 200 μL of FACS buffer. […] Each WBC pellet was resuspended in 250 μL of FACS buffer and fluorescence intensity measured on a LSRII 4-color FACS machine. […]
# [4] = test system: TLR3-induced IFNα production by PBMC; assay: TLR3-induced IFNα production by PBMC; assay type: cell-based, human; settings: 1 μM Poly I:C, BIIB059 10 μg/mL to 0.5 ng/ml
# Procedure: This experiment was performed to determine whether other cell types triggered with different TLR ligands are still able to produce type I IFN even in the presence of BIIB059. […] PBMC from human healthy donors were stimulated with poly: IC, which is a TLR3 ligand that can potently induce type I IFN predominantly by monocytes. […] The plates were incubated overnight (18 hours) at 37° C. and 5% CO2. 200 μL of the supernatants were collected for evaluation of IFNα levels by ELISA.
# [5] = test system: human and cynomolgus BDCA2 ECD; assay: Octet binding of BIIB059 to BDCA2 ECD; design: species or system cynomolgus monkey; settings: BIIB059 on anti-human Fc tips, ECD 2 μg/mL, 5 mM CaCl2
# Procedure: For the association step, human and cynomolgus BDCA2 ECD was added at a concentration of 2 μg/mL. The buffer for this experiment was 50 mM HEPES, pH 7, 100 mM NaCl, 5 mM CaCl2, 1 mg/mL BSA, 0.02% Tween 20 and 0.001% azide.
# Sequence of surface rat Clec4b2 (as listed by the source): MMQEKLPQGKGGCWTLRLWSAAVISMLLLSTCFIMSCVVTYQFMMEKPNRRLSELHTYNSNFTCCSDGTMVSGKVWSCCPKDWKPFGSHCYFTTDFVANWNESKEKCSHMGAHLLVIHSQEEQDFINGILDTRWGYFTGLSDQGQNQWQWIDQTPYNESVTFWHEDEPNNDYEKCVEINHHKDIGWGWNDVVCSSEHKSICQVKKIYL
# Sequence of surface rat Clec4b2 (P20411 19-86 partner): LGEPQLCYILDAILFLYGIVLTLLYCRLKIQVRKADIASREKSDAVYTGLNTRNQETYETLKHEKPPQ
# Sequence of BDCA2 on cynomolgus plasmacytoid dendritic cells (as listed by the source): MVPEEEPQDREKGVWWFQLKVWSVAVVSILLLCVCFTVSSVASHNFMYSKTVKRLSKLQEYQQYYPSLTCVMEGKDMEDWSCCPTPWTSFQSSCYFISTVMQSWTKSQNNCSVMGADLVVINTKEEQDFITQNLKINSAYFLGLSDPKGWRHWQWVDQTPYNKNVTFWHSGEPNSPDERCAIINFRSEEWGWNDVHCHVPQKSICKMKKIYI
EC50 of binding to pDCs [3],binding to human versus cyno BDCA2 ECD [5],Substance,"CDC activity, in words [1]",IFNα production [2],killing of BDCA2 bearing CHO cells (BDCA2 bearing CHO cells) [%],binding to surface rat Clec4b2 (surface rat Clec4b2),TLR3-induced IFNα production [4],"ADCC activity, in words (BDCA2 bearing CHO cells)"
–,–,24F4S: hu24F4 H4/L1 with C95S light chain; differs from BIIB059 by 1 amino acid residue,cell killing by CDC similar to Triton lysis,completely abrogated,100,–,–,–
1-2 μg/mL,comparable,"BIIB059: humanized IgG1 anti-BDCA2 antibody, mature heavy chain SEQ ID NO: 4 and mature light chain SEQ ID NO: 3",cell killing by CDC similar to Triton lysis,–,–,no binding to surface rat Clec4b2 was detected,did not impact,identical ADCC activity
